We go through three compounds from PMC10794144, “A novel antibiotic class targeting the lipopolysaccharide transporter” (Nature, 2024).

Converted amounts (≈) assume the structure as drawn. Like-named read-outs stand apart in the source and are kept apart here.

In one series the target is T1, Abl kinase (Homo sapiens, UniProt P00519).
T1 construct: purchased Eurofins CEREP SA
Description: Off-target screening (CEREP). The class given is biochemical. The settings on record: 10 µM, duplicates; read-out: percent inhibition. The protocol: (§1) Supplementary Table 1 │ Off-target activity screening f or MCP compou nds […]
(§2) The assays given in the table above were conducted at Eurofins CEREP S A (Celle-Lévescault, France) and were run as single point measurements in duplicates in the presence of 10 µ M of the test compound and reported as percent inhibition of the radioligand signal or control enzymatic activity. n.d., not

The target in the next series is T2, GSK-3A (Homo sapiens, UniProt P49840).
T2 construct: purchased Eurofins CEREP SA
Description: Off-target screening (CEREP). The class given is biochemical. The settings on record: 10 µM, duplicates; read-out: percent inhibition. The protocol:
as §1, §2

For a further series, the target named is T3, Phosphodiesterase 3B (Homo sapiens, UniProt Q13370).
T3 construct: purchased Eurofins CEREP SA
Description: Off-target screening (CEREP). The class given is biochemical. The note with it: 10 µM, duplicates; read-out: percent inhibition. How it is done:
as §1, §2

For another series, the target named is T4, Matrix metalloprotease-9 (Homo sapiens, UniProt P14780).
T4 construct: purchased Eurofins CEREP SA
Nature of the series: Off-target screening (CEREP). The class given is biochemical. The settings on record: 10 µM, duplicates; read-out: percent inhibition. The protocol: as §1, §2

For the next series, the target named is T5, ZAP70 kinase (Homo sapiens, UniProt P43403).
T5 construct: purchased Eurofins CEREP SA
T5 sequence (P43403 1-619): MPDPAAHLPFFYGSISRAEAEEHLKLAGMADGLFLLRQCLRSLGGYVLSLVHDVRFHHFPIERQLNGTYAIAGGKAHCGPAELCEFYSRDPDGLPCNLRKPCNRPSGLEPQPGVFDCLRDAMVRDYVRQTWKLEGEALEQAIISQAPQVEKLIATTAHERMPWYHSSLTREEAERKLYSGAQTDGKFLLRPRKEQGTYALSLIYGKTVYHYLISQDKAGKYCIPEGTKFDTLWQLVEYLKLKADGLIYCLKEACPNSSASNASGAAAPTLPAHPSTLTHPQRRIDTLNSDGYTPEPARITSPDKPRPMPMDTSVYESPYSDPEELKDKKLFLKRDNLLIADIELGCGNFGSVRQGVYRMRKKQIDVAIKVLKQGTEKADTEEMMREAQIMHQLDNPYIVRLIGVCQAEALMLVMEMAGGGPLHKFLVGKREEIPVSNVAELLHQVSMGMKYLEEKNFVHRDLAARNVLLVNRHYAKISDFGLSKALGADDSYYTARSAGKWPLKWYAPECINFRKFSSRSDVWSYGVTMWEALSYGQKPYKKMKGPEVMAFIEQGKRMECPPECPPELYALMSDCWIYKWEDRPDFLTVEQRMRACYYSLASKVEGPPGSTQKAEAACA
Description: Off-target screening (CEREP). The class given is biochemical. The settings on record: 10 µM, duplicates; read-out: percent inhibition. How it is done:
as §1, §2

Another series has as its target T6, Cyclooxygenase 2 (Homo sapiens, UniProt P35354).
T6 construct: purchased Eurofins CEREP SA
T6 sequence (P35354 18-604): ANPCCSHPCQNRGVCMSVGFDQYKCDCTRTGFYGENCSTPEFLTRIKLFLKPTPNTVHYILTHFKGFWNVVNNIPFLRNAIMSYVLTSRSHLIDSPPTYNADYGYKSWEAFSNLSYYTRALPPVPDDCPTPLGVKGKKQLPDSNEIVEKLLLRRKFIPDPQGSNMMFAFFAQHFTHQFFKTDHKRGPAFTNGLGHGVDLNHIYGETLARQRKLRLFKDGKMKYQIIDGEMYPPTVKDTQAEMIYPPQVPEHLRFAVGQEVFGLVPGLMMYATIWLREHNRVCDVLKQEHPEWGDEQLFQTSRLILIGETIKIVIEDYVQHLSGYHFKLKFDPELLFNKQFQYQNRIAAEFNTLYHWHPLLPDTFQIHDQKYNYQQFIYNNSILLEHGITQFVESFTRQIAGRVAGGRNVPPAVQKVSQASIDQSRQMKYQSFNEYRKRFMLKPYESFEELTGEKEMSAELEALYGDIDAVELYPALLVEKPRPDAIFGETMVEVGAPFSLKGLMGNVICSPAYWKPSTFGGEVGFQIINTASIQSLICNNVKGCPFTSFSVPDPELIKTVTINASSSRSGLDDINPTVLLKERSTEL
Description: Off-target screening (CEREP). The class given is biochemical. The settings on record: 10 µM, duplicates; read-out: percent inhibition. How it is done:
as §1, §2

For the next series, the target named is T7, CDK2 (Homo sapiens, UniProt P24941).
T7 construct: purchased Eurofins CEREP SA
Nature of the series: Off-target screening (CEREP). The class given is biochemical. The settings on record: 10 µM, duplicates; read-out: percent inhibition. The protocol: as §1, §2

Another series addresses CYP2C9 (Homo sapiens, UniProt P11712). Description: CYP inhibition. The class given is in vitro ADME.
Series [1] relates to K. pneumoniae ATCC 700603. Description: microbe, parasite or virus in culture. The note with it: for MIC: Klebsiella pneumoniae. How it is done: MIC determinations were performed using the broth microdilution method and in line with CLSI guidelines M07 and M100 (refs. [37],[38]). Bacterial inocula were prepared by diluting a 0.5 McFarland suspension in CAMHB or lysogeny broth (LB) specifically for A. baylyi isolates. […] MIC values of all of the tested antibiotics were read as the lowest compound concentration inhibiting bacterial growth by naked eye or beyond which the OD600 ceased to decrease.

Another series concerns the target T8, Xanthine oxidase (Bos taurus, UniProt P80457).
T8 construct: purchased Eurofins CEREP SA
Description: Off-target screening (CEREP). The class given is biochemical, bovine. The settings on record: 10 µM, duplicates; read-out: percent inhibition. The protocol: as §1, §2

The next series deals with CYP3A4 (Homo sapiens, UniProt P08684). Nature of the series: CYP inhibition. The class given is in vitro ADME.
The next series deals with A. baumannii. Nature of the series: Immunocompetent mouse septicaemia infection model. The class given is in vivo. The note with it: for Survivors, individual mouse status: ACC00445 septicaemia, 80 mg/kg. The protocol:
Septicaemia was induced in CD-1 immunocompetent male mice by an intraperitoneal inoculation of a bacterial suspension of the tested A. baumannii isolate at a challenge of approximately 1–2 log[CFU] above the determined median lethal dose (resulting in 10^5 to 10^7 CFU per mouse). […] Mouse survival was followed over 6–7 days. GraphPad Prism 8 was used for graphical presentation of the data. Septicaemia studies with mutant derivative isolates obtained in resistance studies were performed as described above, using a bacterial challenge as determined for the parental isolate.

The mark [2] stands for this setting: ATCC700603, CAMHB, mode of at least three replicates (RO7036668 one replicate).

T4 sequence (P14780 94-707): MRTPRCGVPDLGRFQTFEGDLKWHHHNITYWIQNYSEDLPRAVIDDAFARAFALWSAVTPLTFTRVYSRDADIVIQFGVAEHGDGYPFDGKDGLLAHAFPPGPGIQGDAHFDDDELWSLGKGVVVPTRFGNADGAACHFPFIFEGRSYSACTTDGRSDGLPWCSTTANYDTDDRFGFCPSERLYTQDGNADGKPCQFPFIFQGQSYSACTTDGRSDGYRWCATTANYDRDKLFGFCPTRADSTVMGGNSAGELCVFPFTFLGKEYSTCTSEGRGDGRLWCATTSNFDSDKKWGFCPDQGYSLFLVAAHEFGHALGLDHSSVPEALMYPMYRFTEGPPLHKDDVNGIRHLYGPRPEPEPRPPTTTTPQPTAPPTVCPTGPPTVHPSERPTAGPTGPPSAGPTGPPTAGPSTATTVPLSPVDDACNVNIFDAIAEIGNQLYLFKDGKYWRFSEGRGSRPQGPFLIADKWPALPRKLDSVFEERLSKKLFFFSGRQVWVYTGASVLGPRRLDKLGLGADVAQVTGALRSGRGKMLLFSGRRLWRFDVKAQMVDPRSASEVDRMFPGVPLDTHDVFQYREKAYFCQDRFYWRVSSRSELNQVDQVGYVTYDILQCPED
T8 sequence (P80457 whole entry): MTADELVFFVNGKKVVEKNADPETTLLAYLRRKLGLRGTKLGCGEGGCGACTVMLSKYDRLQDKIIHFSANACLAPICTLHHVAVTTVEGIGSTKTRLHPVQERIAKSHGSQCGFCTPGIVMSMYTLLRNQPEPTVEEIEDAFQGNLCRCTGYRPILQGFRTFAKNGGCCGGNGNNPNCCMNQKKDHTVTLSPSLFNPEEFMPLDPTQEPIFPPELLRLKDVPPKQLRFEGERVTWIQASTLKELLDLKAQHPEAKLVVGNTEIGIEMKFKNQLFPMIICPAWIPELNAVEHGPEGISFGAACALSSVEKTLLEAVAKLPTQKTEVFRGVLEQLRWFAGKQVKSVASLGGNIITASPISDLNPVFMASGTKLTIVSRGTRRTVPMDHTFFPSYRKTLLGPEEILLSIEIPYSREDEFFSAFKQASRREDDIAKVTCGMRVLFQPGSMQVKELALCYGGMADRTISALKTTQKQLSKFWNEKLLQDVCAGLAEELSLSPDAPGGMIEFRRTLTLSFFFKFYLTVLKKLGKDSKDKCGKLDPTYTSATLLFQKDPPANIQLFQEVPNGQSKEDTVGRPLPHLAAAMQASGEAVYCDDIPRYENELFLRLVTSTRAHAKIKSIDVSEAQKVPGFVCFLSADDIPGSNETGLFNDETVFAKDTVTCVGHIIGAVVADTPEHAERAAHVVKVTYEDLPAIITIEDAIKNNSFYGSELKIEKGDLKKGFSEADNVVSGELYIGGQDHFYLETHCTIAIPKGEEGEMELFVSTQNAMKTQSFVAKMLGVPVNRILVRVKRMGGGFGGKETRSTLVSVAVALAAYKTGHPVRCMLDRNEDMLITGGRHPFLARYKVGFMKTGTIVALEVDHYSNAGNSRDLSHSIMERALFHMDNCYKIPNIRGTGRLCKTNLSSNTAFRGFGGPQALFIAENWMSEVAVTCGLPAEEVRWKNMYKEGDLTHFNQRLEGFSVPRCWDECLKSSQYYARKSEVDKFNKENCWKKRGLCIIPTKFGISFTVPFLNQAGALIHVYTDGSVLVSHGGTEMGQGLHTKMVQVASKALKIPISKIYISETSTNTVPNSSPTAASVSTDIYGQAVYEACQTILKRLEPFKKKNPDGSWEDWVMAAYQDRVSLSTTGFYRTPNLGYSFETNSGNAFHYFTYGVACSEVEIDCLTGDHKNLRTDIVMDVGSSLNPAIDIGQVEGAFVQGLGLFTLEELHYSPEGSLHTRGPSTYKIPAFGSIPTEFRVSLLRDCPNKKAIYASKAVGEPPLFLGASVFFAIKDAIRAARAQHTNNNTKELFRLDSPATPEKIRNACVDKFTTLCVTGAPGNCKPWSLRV
T3 sequence (Q13370 whole entry): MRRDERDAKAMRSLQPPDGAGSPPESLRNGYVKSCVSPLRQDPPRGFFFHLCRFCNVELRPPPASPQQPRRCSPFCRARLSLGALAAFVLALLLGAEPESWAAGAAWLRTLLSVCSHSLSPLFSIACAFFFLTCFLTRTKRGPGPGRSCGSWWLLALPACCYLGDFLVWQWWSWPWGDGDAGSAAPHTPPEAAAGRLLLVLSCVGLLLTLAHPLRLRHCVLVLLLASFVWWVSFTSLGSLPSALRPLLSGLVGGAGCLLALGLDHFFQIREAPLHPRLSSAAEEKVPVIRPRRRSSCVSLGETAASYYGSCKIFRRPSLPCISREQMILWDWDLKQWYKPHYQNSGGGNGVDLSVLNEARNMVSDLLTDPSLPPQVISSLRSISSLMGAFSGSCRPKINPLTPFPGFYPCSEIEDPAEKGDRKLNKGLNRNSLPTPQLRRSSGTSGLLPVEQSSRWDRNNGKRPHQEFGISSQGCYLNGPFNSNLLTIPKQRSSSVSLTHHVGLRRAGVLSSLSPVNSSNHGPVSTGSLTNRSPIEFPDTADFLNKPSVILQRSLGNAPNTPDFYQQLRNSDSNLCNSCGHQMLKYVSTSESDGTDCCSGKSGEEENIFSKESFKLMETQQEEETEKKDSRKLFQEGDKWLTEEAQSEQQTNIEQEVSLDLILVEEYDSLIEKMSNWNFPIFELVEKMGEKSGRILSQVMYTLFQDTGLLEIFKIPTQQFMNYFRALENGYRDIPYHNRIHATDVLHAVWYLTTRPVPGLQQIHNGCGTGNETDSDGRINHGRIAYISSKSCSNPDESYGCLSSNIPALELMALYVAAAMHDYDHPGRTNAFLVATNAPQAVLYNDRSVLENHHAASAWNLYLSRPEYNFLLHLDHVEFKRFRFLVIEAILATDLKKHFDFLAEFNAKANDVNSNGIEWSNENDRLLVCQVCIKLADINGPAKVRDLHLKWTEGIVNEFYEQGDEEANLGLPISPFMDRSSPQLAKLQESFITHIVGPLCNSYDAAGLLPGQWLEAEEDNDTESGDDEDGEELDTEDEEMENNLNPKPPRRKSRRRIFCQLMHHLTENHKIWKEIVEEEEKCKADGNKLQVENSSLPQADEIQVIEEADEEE
Chain of CYP2C9 (P11712 whole entry): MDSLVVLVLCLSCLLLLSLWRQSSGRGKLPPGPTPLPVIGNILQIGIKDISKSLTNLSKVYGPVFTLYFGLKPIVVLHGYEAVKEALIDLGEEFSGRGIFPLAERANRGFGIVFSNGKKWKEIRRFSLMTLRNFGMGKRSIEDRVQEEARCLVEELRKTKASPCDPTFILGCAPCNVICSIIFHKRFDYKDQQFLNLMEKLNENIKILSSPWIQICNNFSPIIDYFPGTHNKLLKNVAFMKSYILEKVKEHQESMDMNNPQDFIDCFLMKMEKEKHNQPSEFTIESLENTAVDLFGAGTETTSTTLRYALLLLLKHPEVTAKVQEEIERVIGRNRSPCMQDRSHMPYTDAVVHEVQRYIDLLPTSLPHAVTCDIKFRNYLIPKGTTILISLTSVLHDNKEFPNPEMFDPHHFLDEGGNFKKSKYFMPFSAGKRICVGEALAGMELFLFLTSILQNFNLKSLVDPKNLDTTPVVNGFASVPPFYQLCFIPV
Chain of CYP3A4 (P08684 whole entry): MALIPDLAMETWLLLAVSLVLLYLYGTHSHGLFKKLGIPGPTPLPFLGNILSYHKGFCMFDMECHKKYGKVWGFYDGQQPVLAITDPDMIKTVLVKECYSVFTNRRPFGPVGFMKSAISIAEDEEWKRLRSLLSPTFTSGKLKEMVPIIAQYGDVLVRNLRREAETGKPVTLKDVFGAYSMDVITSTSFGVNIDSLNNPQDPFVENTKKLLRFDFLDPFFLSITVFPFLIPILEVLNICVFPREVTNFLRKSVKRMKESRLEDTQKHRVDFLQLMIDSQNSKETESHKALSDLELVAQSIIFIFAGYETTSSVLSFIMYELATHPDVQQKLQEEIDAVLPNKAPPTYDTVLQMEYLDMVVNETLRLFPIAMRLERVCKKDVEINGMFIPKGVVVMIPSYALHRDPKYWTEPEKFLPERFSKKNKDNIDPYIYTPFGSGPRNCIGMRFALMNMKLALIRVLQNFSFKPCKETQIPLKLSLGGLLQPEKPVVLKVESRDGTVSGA
T2 sequence (P49840 whole entry): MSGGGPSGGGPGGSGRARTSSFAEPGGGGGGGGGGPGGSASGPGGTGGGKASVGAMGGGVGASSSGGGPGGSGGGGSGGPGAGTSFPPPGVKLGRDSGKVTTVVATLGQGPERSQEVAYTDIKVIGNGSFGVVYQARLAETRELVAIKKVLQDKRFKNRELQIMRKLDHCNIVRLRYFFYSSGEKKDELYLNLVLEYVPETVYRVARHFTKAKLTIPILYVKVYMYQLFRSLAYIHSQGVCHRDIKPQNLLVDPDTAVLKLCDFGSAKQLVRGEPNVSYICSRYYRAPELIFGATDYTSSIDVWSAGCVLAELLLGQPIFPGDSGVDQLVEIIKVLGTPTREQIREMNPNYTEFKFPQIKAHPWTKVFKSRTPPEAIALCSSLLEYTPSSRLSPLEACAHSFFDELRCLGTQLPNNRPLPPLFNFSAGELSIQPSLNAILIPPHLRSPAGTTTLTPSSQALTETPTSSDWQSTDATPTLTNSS

As usually defined, the inhibition is the change of the read-out against control, counted positive when it falls. With `CN1C(=O)[C@H](CCCCN)NC(=O)[C@H](CCCN)NCc2cccnc2Sc2c(Cl)ccc(-c3ccc(C(=O)O)cc3)c2CNC(=O)[C@@H]1Cc1c[nH]c2ccccc12` [RO7202110], the inhibition at 10 µM on Abl kinase is -24%; on GSK-3A it was 22%; at Phosphodiesterase 3B, 2%; at Matrix metalloprotease-9, 13%; on ZAP70 kinase, -39%; on Cyclooxygenase 2 it was 12%. The inhibition at 10 µM at CDK2 was 17%; on Xanthine oxidase it was 0%. Besides, at CYP2C9, the “CYP inh. (2C9)” value is recorded as >50 (3A4) >50 (2C9) >50 (2D6) μM. The MIC in series [1] (setting [2]) was more than 64 µg/mL. Besides, the “MIC 100%” value is more than 64 µg/mL in series [1] (Study LGC294355, 100%); more than 64 µg/mL in [1] (Study LGC295147, 100%); more than 64 µg/mL in series [1] (Study LGC299544, 100%); more than 64 µg/mL in series [1] (Study LGC308175, 100%). The “CYP inh. (3A4)” value on CYP3A4 is given as >50 (3A4) >50 (2C9) >50 (2D6) μM.
Take `CN1C(=O)[C@H](CCCN)NC(=O)[C@H](CCCN)NCc2ccccc2Sc2ccccc2CNC(=O)[C@@H]1Cc1c[nH]c2ccccc12` [RO7036668]: the inhibition at 10 µM on GSK-3A was -12%; at Phosphodiesterase 3B, 17%; at Matrix metalloprotease-9 it was 6%; on ZAP70 kinase, 2%; on Cyclooxygenase 2, 4%; on CDK2, 9%. The inhibition at 10 µM on Xanthine oxidase is -16%. Moreover, the “CYP inh. (2C9)” value on CYP2C9 was more than 50 µM. The compound further yielded an MIC in [1] (setting [2]) of more than 64 µg/mL. Also, in series [1] (Study ROC004, 100%), the “MIC 100%” value is more than 64 µg/mL. Besides, at CYP3A4, the “CYP inh. (3A4)” value turned out to be 18 µM.
Consider `C[C@@H](O)[C@H]1C(=O)N2C(C(=O)O)=C(S[C@@H]3CN[C@H](C(=O)N(C)C)C3)[C@H](C)[C@H]12` [meropenem, reference compound], for which the MIC in series [1] (setting [2]) was not above 0.06 µg/mL; in series [1] (ATCC700603, read-out: MIC 100%, Study LGC277937, 100%), not above 0.06 µg/mL; in [1] (ATCC700603, read-out: MIC 100%, Study LGC279800, 100%), not above 0.06 µg/mL; in series [1] (ATCC700603, read-out: MIC 100%, Study LGC281440, 100%), not above 0.06 µg/mL; in [1] (ATCC700603, read-out: MIC 100%, Study LGC282160, 100%), not above 0.06 µg/mL; in series [1] (ATCC700603, read-out: MIC 100%, Study LGC282623, 100%), not above 0.06 µg/mL. For the same compound, the MIC was not above 0.06 µg/mL in series [1] (ATCC700603, read-out: MIC 100%, Study LGC283932, 100%); not above 0.06 µg/mL in series [1] (ATCC700603, read-out: MIC 100%, Study LGC284200, 100%); not above 0.06 µg/mL in [1] (ATCC700603, read-out: MIC 100%, Study LGC284879, 100%); not above 0.06 µg/mL in series [1] (ATCC700603, read-out: MIC 100%, Study LGC285582, 100%); not above 0.06 µg/mL in [1] (ATCC700603, read-out: MIC 100%, Study LGC286210, 100%); not above 0.06 µg/mL in [1] (ATCC700603, read-out: MIC 100%, Study LGC293598, 100%). Moreover, the MIC in series [1] (ATCC700603, read-out: MIC 100%, Study LGC294355, 100%) was not above 0.06 µg/mL; in series [1] (ATCC700603, read-out: MIC 100%, Study LGC295147, 100%), not above 0.06 µg/mL; in series [1] (ATCC700603, read-out: MIC 100%, Study LGC296813, 100%), not above 0.06 µg/mL; in series [1] (ATCC700603, read-out: MIC 100%, Study LGC299544, 100%), not above 0.06 µg/mL; in series [1] (ATCC700603, read-out: MIC 100%, Study LGC301026, 100%) it was not above 0.06 µg/mL; in series [1] (ATCC700603, read-out: MIC 100%, Study LGC308175, 100%), not above 0.06 µg/mL. Further, the MIC in series [1] (ATCC700603, read-out: MIC 100%, Study ROC003, 100%) was not above 0.06 µg/mL; in [1] (ATCC700603, read-out: MIC 100%, Study ROC004, 100%), not above 0.06 µg/mL; in series [1] (ATCC700603, read-out: MIC 100%, Study ROC005, 100%), not above 0.06 µg/mL; in series [1] (ATCC700603, read-out: MIC 100%, Study ROC006, 100%), not above 0.06 µg/mL; in series [1] (ATCC700603, read-out: MIC 100%, Study ROC007, 100%), not above 0.06 µg/mL; in series [1] (ATCC700603, read-out: MIC 100%, Study ROC008, 100%), 0.12 µg/mL (≈ 0.313 µM). Besides, the MIC is 0.06 µg/mL (≈ 0.156 µM) in [1] (ATCC700603, read-out: MIC 100%, Study ROC009, 100%); not above 0.06 µg/mL in series [1] (ATCC700603, read-out: MIC 100%, Study ROC010, 100%); not above 0.06 µg/mL in series [1] (ATCC700603, read-out: MIC 100%, Study ROC012, 100%); not above 0.06 µg/mL in series [1] (ATCC700603, read-out: MIC 100%, Study ROC013, 100%). Besides, the “Survivors, individual mouse status” value in the series with A. baumannii (Day 1) and in the series on A. baumannii (Day 2) was 1 throughout. In the series on A. baumannii (murine septicaemia, MDR A. baumannii APV00535 (ACC00535), Meropenem 80 mg/kg, mark per mouse (10 mice), study VDD3948), the “Survivors, 2016-02-03” value is 1.
